Results published in US10118935B2, “Melampomagnolide B dimers” (priority 2014, dated 2018).
Read-outs that look alike come from different tables or passages of the source.

Columns and labels:
SK-MEL-2 = assay: NCI 60 cell line five dose, Melanoma
NCI-H460 = assay: NCI 60 cell line five dose, Non-Small Cell Lung Cancer
KM12 = assay: NCI 60 cell line five dose, Colon Cancer
M14 = assay: NCI 60 cell line five dose, Melanoma
M9ENL AML cell lines = conditions: read-out: LC50; M9ENL AML cell lines; after 24 hours of drug exposure
MOLT-4 = assay: NCI 60 cell line five dose, Leukemia
SR = assay: NCI 60 cell line five dose, Leukemia
NCI-H23 = assay: NCI 60 cell line five dose, Non-Small Cell Lung Cancer
U251 = assay: NCI 60 cell line five dose, CNS Cancer
T-47D = assay: NCI 60 cell line five dose, Breast Cancer
NCI-H322M = assay: NCI 60 cell line five dose, Non-Small Cell Lung Cancer
NCI-H226 = assay: as above
OVCAR-3 = assay: NCI 60 cell line five dose, Ovarian Cancer
HCC-2998 = assay: NCI 60 cell line five dose, Colon Cancer
OVCAR-4 = assay: NCI 60 cell line five dose, Ovarian Cancer
HOP-92 = assay: NCI 60 cell line five dose, Non-Small Cell Lung Cancer
OVCAR-8 = assay: NCI 60 cell line five dose, Ovarian Cancer
K-562 = assay: NCI 60 cell line five dose, Leukemia
SF-268 = assay: NCI 60 cell line five dose, CNS Cancer
UO-31 = assay: NCI 60 cell line five dose, Renal Cancer
TK-10 = assay: NCI 60 cell line five dose, Renal Cancer

C=C1C(=O)O[C@H]2[C@H]1CC/C(COC(=O)NCCCCCCCCNC(=O)OC/C1=C/CC[C@@]3(C)O[C@H]3[C@H]3OC(=O)C(=C)[C@@H]3CC1)=C\CC[C@@]1(C)O[C@@H]21 [JVM 3-62, bis(((1aR,7aS, 10aS, 10bS, E)-1a-Methyl-8-methylene-9-oxo-1a,2,3,6,7,7a,8,9,10a,10b-decahydrooxireno[2′,3′:9,10]cyclodeca[1,2-b]furan-5-yl)methyl)octane-1,8-diyldicarbamate]
Percent Growth (SK-MEL-2; Log10 Concentration −4.0): −68% | Percent Growth (SK-MEL-2; Log10 Concentration −5.0): −45% | Percent Growth (SK-MEL-2; Log10 Concentration −6.0): 36% | Percent Growth (SK-MEL-2; Log10 Concentration −7.0): 100% | Percent Growth (SK-MEL-2; Log10 Concentration −8.0): 92% | GI50 (SK-MEL-2; molar): 0.601 µM | TGI (SK-MEL-2; molar): 2.79E−6 | Percent Growth (NCI-H460; Log10 Concentration −4.0): −64% | Percent Growth (NCI-H460; Log10 Concentration −5.0): −56% | Percent Growth (NCI-H460; Log10 Concentration −6.0): 84% | Percent Growth (NCI-H460; Log10 Concentration −7.0): 102% | Percent Growth (NCI-H460; Log10 Concentration −8.0): 104% | GI50 (NCI-H460; molar): 1.75 µM | TGI (NCI-H460; molar): 3.98E−6 | CC50 (NCI-H460; read-out: LC50, molar): 9.02 µM | Percent Growth (KM12; Log10 Concentration −4.0): −83% | Percent Growth (KM12; Log10 Concentration −5.0): −66% | Percent Growth (KM12; Log10 Concentration −6.0): 65% | Percent Growth (KM12; Log10 Concentration −7.0): 105% | Percent Growth (KM12; Log10 Concentration −8.0): 102% | GI50 (KM12; molar): 1.29 µM | CC50 (KM12; read-out: LC50, molar): 7.49 µM | Percent Growth (M14; Log10 Concentration −4.0): −76% | Percent Growth (M14; Log10 Concentration −5.0): −71% | Percent Growth (M14; Log10 Concentration −6.0): −10% | Percent Growth (M14; Log10 Concentration −7.0): 95% | Percent Growth (M14; Log10 Concentration −8.0): 95% | GI50 (M14; molar): 0.272 µM | TGI (M14; molar): 8.00E−7 | CC50 (M14; read-out: LC50, molar): 4.53 µM | CC50 (M9ENL AML cell lines): 1 µM | Percent Growth (MOLT-4; Log10 Concentration −4.0): −34% | Percent Growth (MOLT-4; Log10 Concentration −5.0): −27% | Percent Growth (MOLT-4; Log10 Concentration −6.0): 2% | Percent Growth (MOLT-4; Log10 Concentration −7.0): 101% | Percent Growth (MOLT-4; Log10 Concentration −8.0): 100% | GI50 (MOLT-4; molar): 0.33 µM | TGI (MOLT-4; molar): 1.18E−6 | CC50 (MOLT-4; read-out: LC50, molar): > 100 µM | Percent Growth (SR; Log10 Concentration −4.0): −31% | Percent Growth (SR; Log10 Concentration −5.0): −26% | Percent Growth (SR; Log10 Concentration −6.0): 6% | Percent Growth (SR; Log10 Concentration −7.0): 95% | Percent Growth (SR; Log10 Concentration −8.0): 98% | GI50 (SR; molar): 0.317 µM | CC50 (SR; read-out: LC50, molar): > 100 µM | Percent Growth (NCI-H23; Log10 Concentration −4.0): −78% | Percent Growth (NCI-H23; Log10 Concentration −5.0): −85% | Percent Growth (NCI-H23; Log10 Concentration −6.0): 27% | Percent Growth (NCI-H23; Log10 Concentration −7.0): 100% | Percent Growth (NCI-H23; Log10 Concentration −8.0): 100% | GI50 (NCI-H23; molar): 0.485 µM | TGI (NCI-H23; molar): 1.74E−6 | CC50 (NCI-H23; read-out: LC50, molar): 4.86 µM | Percent Growth (U251; Log10 Concentration −4.0): −77% | Percent Growth (U251; Log10 Concentration −5.0): −79% | Percent Growth (U251; Log10 Concentration −6.0): −18% | Percent Growth (U251; Log10 Concentration −7.0): 91% | Percent Growth (U251; Log10 Concentration −8.0): 96% | GI50 (U251; molar): 0.578 µM | TGI (U251; molar): 2.00E−6 | CC50 (U251; read-out: LC50, molar): 5.13 µM | Percent Growth (T-47D; Log10 Concentration −4.0): −49% | Percent Growth (T-47D; Log10 Concentration −5.0): −46% | Percent Growth (T-47D; Log10 Concentration −6.0): −4% | Percent Growth (T-47D; Log10 Concentration −7.0): 100% | Percent Growth (T-47D; Log10 Concentration −8.0): 92% | GI50 (T-47D; molar): 0.323 µM | TGI (T-47D; molar): 9.15E−7 | CC50 (T-47D; read-out: LC50, molar): > 100 µM | Percent Growth (NCI-H322M; Log10 Concentration −4.0): −91% | Percent Growth (NCI-H322M; Log10 Concentration −5.0): −51% | Percent Growth (NCI-H322M; Log10 Concentration −6.0): 100% | Percent Growth (NCI-H322M; Log10 Concentration −7.0): 104% | Percent Growth (NCI-H322M; Log10 Concentration −8.0): 107% | GI50 (NCI-H322M; molar): 2.14 µM | Percent Growth (NCI-H226; Log10 Concentration −4.0): −57% | Percent Growth (NCI-H226; Log10 Concentration −5.0): −46% | Percent Growth (NCI-H226; Log10 Concentration −6.0): 83% | Percent Growth (NCI-H226; Log10 Concentration −7.0): 89% | Percent Growth (NCI-H226; Log10 Concentration −8.0): 93% | GI50 (NCI-H226; molar): 1.81 µM | TGI (NCI-H226; molar): 4.39E−6 | Percent Growth (OVCAR-3; Log10 Concentration −4.0): −100% | Percent Growth (OVCAR-3; Log10 Concentration −5.0): −98% | Percent Growth (OVCAR-3; Log10 Concentration −6.0): 3% | Percent Growth (OVCAR-3; Log10 Concentration −7.0): 101% | Percent Growth (OVCAR-3; Log10 Concentration −8.0): 102% | GI50 (OVCAR-3; molar): 0.33 µM | TGI (OVCAR-3; molar): 1.08E−6 | CC50 (OVCAR-3; read-out: LC50, molar): 3.32 µM | Percent Growth (HCC-2998; Log10 Concentration −4.0): −92% | Percent Growth (HCC-2998; Log10 Concentration −5.0): −93% | Percent Growth (HCC-2998; Log10 Concentration −6.0): 63% | Percent Growth (HCC-2998; Log10 Concentration −7.0): 98% | Percent Growth (HCC-2998; Log10 Concentration −8.0): 100% | GI50 (HCC-2998; molar): 1.2 µM | TGI (HCC-2998; molar): 2.52E−6 | CC50 (HCC-2998; read-out: LC50, molar): 5.28 µM | Percent Growth (HL-60(TB); Log10 Concentration −4.0): −39% | Percent Growth (HL-60(TB); Log10 Concentration −5.0): −37% | Percent Growth (HL-60(TB); Log10 Concentration −6.0): −6% | Percent Growth (HL-60(TB); Log10 Concentration −7.0): 92% | Percent Growth (HL-60(TB); Log10 Concentration −8.0): 103% | GI50 (HL-60(TB); molar): 0.268 µM | CC50 (HL-60(TB); read-out: LC50, molar): > 100 µM | Percent Growth (OVCAR-4; Log10 Concentration −4.0): −89% | Percent Growth (OVCAR-4; Log10 Concentration −5.0): −92% | Percent Growth (OVCAR-4; Log10 Concentration −6.0): 34% | Percent Growth (OVCAR-4; Log10 Concentration −7.0): 91% | Percent Growth (OVCAR-4; Log10 Concentration −8.0): 90% | GI50 (OVCAR-4; molar): 0.521 µM | CC50 (OVCAR-4; read-out: LC50, molar): 4.63 µM | Percent Growth (HOP-92; Log10 Concentration −4.0): −88% | Percent Growth (HOP-92; Log10 Concentration −5.0): −92% | Percent Growth (HOP-92; Log10 Concentration −6.0): −26% | Percent Growth (HOP-92; Log10 Concentration −7.0): 75% | Percent Growth (HOP-92; Log10 Concentration −8.0): 87% | GI50 (HOP-92; molar): 0.177 µM | TGI (HOP-92; molar): 5.51E−7 | CC50 (HOP-92; read-out: LC50, molar): 2.29 µM | Percent Growth (OVCAR-8; Log10 Concentration −4.0): −55% | Percent Growth (OVCAR-8; Log10 Concentration −5.0): −51% | Percent Growth (OVCAR-8; Log10 Concentration −6.0): 6% | Percent Growth (OVCAR-8; Log10 Concentration −7.0): 96% | Percent Growth (OVCAR-8; Log10 Concentration −8.0): 100% | GI50 (OVCAR-8; molar): 0.326 µM | CC50 (OVCAR-8; read-out: LC50, molar): 6.77 µM | Percent Growth (K-562; Log10 Concentration −4.0): −44% | Percent Growth (K-562; Log10 Concentration −5.0): −14% | Percent Growth (K-562; Log10 Concentration −6.0): 2% | Percent Growth (K-562; Log10 Concentration −7.0): 107% | Percent Growth (K-562; Log10 Concentration −8.0): 103% | GI50 (K-562; molar): 0.349 µM | TGI (K-562; molar): 1.37E−6 | CC50 (K-562; read-out: LC50, molar): > 100 µM | Percent Growth (SF-268; Log10 Concentration −4.0): −59% | Percent Growth (SF-268; Log10 Concentration −5.0): −66% | Percent Growth (SF-268; Log10 Concentration −6.0): 50% | Percent Growth (SF-268; Log10 Concentration −7.0): 104% | Percent Growth (SF-268; Log10 Concentration −8.0): 101% | GI50 (SF-268; molar): 0.999 µM | TGI (SF-268; molar): 2.69E−6 | CC50 (SF-268; read-out: LC50, molar): 7.24 µM | Percent Growth (UO-31; Log10 Concentration −4.0): −87% | Percent Growth (UO-31; Log10 Concentration −5.0): −94% | Percent Growth (UO-31; Log10 Concentration −6.0): 48% | Percent Growth (UO-31; Log10 Concentration −7.0): 90% | Percent Growth (UO-31; Log10 Concentration −8.0): 90% | GI50 (UO-31; molar): 0.88 µM | TGI (UO-31; molar): 2.17E−6 | CC50 (UO-31; read-out: LC50, molar): 4.9 µM | Percent Growth (TK-10; Log10 Concentration −4.0): −99% | Percent Growth (TK-10; Log10 Concentration −5.0): −98% | Percent Growth (TK-10; Log10 Concentration −6.0): −7% | Percent Growth (TK-10; Log10 Concentration −7.0): 97% | Percent Growth (TK-10; Log10 Concentration −8.0): 92% | GI50 (TK-10; molar): 0.284 µM | TGI (TK-10; molar): 8.56E−7 | CC50 (TK-10; read-out: LC50, molar): 2.95 µM
